Reference: ChEMBL document CHEMBL5042492, “Noncovalent CDK12/13 dual inhibitors-based PROTACs degrade CDK12-Cyclin K complex and induce synthetic lethality with PARP inhibitor” (Eur J Med Chem, 2022)
Active and inactive are the calls of the source. The calls are words filed in the database; no cut-off is given here.

What was measured:
[1] = molecular target: T1, Protein cereblon/Cyclin-K/Cyclin-dependent kinase 12 (Homo sapiens, UniProt O75909+Q9NYV4+Q96SW2); experiment: Protac activity at human CRBN/CDK12/CycK in human Bel-7402 cells assessed as degradation of CDK12 at 3 uM measured after 24 hrs by Western blotting assay; format: cell-based
CDK12/Cyclin K = CDK12/Cyclin K (Homo sapiens, UniProt Q9NYV4); experiment: Inhibition of human CDK12 (696 to 1082 residues) /cyclinK (1 to 300 residues) using ac-YSPTSPpSYSPTSFpS-YSPTSPpSY-[PEG2]-RR-amid peptide as substrate in presence of ATP measured after 2 hrs by ADP-Glo kinase assay; format: protein-complex assay
Sequence of CDK12/Cyclin K (O75909 whole entry, the tested form may be a part): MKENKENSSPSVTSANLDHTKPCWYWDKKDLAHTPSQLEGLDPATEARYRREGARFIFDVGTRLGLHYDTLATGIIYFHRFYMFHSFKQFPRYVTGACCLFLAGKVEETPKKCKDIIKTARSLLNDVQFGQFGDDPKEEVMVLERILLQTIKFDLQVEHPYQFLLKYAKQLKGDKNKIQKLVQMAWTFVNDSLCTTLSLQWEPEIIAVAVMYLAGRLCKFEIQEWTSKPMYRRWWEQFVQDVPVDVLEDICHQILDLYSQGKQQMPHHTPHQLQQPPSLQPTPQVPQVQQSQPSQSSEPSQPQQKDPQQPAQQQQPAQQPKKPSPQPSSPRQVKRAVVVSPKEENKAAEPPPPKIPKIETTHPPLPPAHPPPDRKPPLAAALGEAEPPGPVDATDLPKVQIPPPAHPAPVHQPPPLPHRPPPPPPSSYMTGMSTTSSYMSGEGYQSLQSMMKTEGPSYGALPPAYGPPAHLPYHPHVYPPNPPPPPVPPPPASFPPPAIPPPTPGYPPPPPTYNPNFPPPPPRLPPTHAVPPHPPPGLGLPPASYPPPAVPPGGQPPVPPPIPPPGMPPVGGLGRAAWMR
Sequence of CDK12/Cyclin K (Q9NYV4 whole entry, the tested form may be a part): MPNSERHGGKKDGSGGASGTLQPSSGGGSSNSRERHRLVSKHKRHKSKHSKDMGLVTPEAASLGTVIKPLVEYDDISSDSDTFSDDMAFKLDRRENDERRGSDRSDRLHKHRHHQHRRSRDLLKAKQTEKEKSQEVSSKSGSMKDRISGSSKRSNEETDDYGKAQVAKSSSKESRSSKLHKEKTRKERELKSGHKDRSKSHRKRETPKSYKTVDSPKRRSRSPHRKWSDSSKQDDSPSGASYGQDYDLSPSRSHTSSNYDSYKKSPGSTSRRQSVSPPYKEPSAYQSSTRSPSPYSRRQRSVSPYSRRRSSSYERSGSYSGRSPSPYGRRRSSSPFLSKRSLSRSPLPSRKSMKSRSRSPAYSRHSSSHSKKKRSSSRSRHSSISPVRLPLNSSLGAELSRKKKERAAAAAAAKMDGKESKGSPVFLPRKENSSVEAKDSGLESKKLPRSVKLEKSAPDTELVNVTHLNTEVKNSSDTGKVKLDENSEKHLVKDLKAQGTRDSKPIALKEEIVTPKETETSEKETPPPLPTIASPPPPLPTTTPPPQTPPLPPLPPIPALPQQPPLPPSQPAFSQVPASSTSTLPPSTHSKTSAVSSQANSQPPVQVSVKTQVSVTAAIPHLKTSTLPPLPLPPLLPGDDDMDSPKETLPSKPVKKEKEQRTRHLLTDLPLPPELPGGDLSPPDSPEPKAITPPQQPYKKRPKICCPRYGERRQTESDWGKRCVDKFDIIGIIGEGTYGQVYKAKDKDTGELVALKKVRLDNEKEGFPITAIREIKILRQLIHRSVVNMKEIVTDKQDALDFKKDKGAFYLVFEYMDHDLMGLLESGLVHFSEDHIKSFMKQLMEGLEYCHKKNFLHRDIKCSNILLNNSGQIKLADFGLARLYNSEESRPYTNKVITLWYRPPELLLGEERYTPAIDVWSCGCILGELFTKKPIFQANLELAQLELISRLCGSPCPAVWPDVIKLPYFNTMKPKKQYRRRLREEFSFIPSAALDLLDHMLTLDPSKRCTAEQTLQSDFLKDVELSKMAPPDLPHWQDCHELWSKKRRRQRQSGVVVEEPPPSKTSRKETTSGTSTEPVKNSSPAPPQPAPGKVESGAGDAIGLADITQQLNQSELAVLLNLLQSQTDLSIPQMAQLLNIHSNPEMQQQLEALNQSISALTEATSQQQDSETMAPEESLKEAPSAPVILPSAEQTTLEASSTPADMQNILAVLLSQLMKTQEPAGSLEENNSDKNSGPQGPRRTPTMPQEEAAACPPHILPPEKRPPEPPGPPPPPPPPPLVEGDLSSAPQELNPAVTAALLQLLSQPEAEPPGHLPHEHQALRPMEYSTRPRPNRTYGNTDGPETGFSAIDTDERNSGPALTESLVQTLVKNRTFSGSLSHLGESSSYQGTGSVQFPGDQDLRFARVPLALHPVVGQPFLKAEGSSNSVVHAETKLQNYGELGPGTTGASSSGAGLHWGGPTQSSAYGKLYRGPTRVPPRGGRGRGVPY

[2] = molecular target: T1, Protein cereblon/Cyclin-K/Cyclin-dependent kinase 12; experiment: Protac activity at human CRBN/CDK12/CycK in human MDA-MB-231 cells assessed as degradation of CDK12 at 3 uM measured after 24 hrs by Western blotting assay; format: cell-based
[3] = molecular target: T1, Protein cereblon/Cyclin-K/Cyclin-dependent kinase 12; experiment: Protac activity at human CRBN/CDK12/CycK in human Bel-7402 cells assessed as degradation of CDK12 measured after 24 hrs by Western blotting assay; format: cell-based
Target sequence in this assay (O75909 whole entry, the tested form may be a part): as the sequence (O75909 whole entry, the tested form may be a part) above
Target sequence in this assay (Q9NYV4 whole entry, the tested form may be a part): as the sequence (Q9NYV4 whole entry, the tested form may be a part) above
Target sequence in this assay (Q96SW2 whole entry, the tested form may be a part): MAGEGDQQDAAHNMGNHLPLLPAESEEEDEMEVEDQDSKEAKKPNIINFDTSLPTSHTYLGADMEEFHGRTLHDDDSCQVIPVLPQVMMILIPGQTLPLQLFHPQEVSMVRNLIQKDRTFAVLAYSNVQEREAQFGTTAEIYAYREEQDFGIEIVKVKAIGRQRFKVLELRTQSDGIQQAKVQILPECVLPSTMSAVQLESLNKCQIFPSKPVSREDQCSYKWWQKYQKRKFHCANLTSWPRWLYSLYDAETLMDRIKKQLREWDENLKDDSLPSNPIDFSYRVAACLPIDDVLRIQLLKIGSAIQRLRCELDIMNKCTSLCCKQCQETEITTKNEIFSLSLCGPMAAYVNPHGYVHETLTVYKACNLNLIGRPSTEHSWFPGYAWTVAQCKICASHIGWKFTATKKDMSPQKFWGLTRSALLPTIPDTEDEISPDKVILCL

[4] = molecular target: T1, Protein cereblon/Cyclin-K/Cyclin-dependent kinase 12; experiment: Protac activity at human CRBN/CDK12/CycK in human Bel-7402 cells assessed as degradation of CycK measured after 24 hrs by Western blotting assay; format: cell-based
Target sequence in this assay (O75909 whole entry, the tested form may be a part): as the sequence (O75909 whole entry, the tested form may be a part) above
Target sequence in this assay (Q9NYV4 whole entry, the tested form may be a part): as the sequence (Q9NYV4 whole entry, the tested form may be a part) above
Target sequence in this assay (Q96SW2 whole entry, the tested form may be a part): as the sequence (Q96SW2 whole entry, the tested form may be a part) above

[5] = molecular target: T1, Protein cereblon/Cyclin-K/Cyclin-dependent kinase 12; experiment: Protac activity at human CRBN/CDK12/CycK in human MDA-MB-231 cells assessed as degradation of CDK12 measured after 24 hrs by Western blotting assay; format: cell-based
Target sequence in this assay (O75909 whole entry, the tested form may be a part): as the sequence (O75909 whole entry, the tested form may be a part) above
Target sequence in this assay (Q9NYV4 whole entry, the tested form may be a part): as the sequence (Q9NYV4 whole entry, the tested form may be a part) above
Target sequence in this assay (Q96SW2 whole entry, the tested form may be a part): as the sequence (Q96SW2 whole entry, the tested form may be a part) above

[6] = molecular target: T1, Protein cereblon/Cyclin-K/Cyclin-dependent kinase 12; experiment: Protac activity at human CRBN/CDK12/CycK in human MDA-MB-231 cells assessed as degradation of CycK measured after 24 hrs by Western blotting assay; format: cell-based
Target sequence in this assay (O75909 whole entry, the tested form may be a part): as the sequence (O75909 whole entry, the tested form may be a part) above
Target sequence in this assay (Q9NYV4 whole entry, the tested form may be a part): as the sequence (Q9NYV4 whole entry, the tested form may be a part) above
Target sequence in this assay (Q96SW2 whole entry, the tested form may be a part): as the sequence (Q96SW2 whole entry, the tested form may be a part) above

[7] = molecular target: T1, Protein cereblon/Cyclin-K/Cyclin-dependent kinase 12; experiment: Protac activity at human CRBN/CDK12/CycK in human Bel-7402 cells assessed as degradation of CDK7 up to 30 uM measured after 24 hrs by Western blotting assay; format: cell-based; conditions: dose microM <=30, time 24.0 hrs
[8] = molecular target: T1, Protein cereblon/Cyclin-K/Cyclin-dependent kinase 12; experiment: Protac activity at human CRBN/CDK12/CycK in human MDA-MB-231 cells assessed as degradation of CDK7 up to 30 uM measured after 24 hrs by Western blotting assay; format: cell-based; conditions: dose microM <=30, time 24.0 hrs
[9] = molecular target: T1, Protein cereblon/Cyclin-K/Cyclin-dependent kinase 12; experiment: Protac activity at human CRBN/CDK12/CycK in human Bel-7402 cells assessed as degradation of CDK9 upto 30 uM measured after 24 hrs by Western blotting assay; format: cell-based; conditions: dose microM <=30, time 24.0 hrs
[10] = molecular target: T1, Protein cereblon/Cyclin-K/Cyclin-dependent kinase 12; experiment: Protac activity at human CRBN/CDK12/CycK in human Bel-7402 cells assessed as RNAP2 CTD Ser2 phosphorylation level at 0.1 to 30 uM measured after 24 hrs by Western blotting assay; format: cell-based; conditions: dose 0.1-30 µM
[11] = molecular target: T1, Protein cereblon/Cyclin-K/Cyclin-dependent kinase 12; experiment: Protac activity at human CRBN/CDK12/CycK in human MDA-MB-231 cells assessed as degradation of CDK9 up to 30 uM measured after 24 hrs by Western blotting assay; format: cell-based; conditions: dose microM <=30, time 24.0 hrs
[12] = molecular target: T1, Protein cereblon/Cyclin-K/Cyclin-dependent kinase 12; experiment: Protac activity at human CRBN/CDK12/CycK in human MDA-MB-231 cells assessed as RNAP2 CTD Ser2 phosphorylation level at 0.1 to 30 uM measured after 24 hrs by Western blotting assay; format: cell-based; conditions: dose 0.1-30 µM
[13] = molecular target: T1, Protein cereblon/Cyclin-K/Cyclin-dependent kinase 12; experiment: Protac activity at human CRBN/CDK12/CycK in human Bel-7402 (CRBN/KO) cells assessed as degradation of CDK12 measured after 24 hrs by Western blotting assay; format: cell-based
[14] = molecular target: T1, Protein cereblon/Cyclin-K/Cyclin-dependent kinase 12; experiment: Protac activity at human CRBN/CDK12/CycK in human MDA-MB-231(CRBN/KO) cells assessed as degradation of CDK12 measured after 24 hrs by Western blotting assay; format: cell-based
[15] = molecular target: T1, Protein cereblon/Cyclin-K/Cyclin-dependent kinase 12; experiment: Protac activity at human CRBN/CDK12/CycK in human Bel-7402 cells assessed as downregulation of ATM measured after 6 hrs by RT-qPCR method; format: cell-based
[16] = molecular target: T1, Protein cereblon/Cyclin-K/Cyclin-dependent kinase 12; experiment: Protac activity at human CRBN/CDK12/CycK in human MDA-MB-231 cells assessed as downregulation of ATM measured after 6 hrs by RT-qPCR method; format: cell-based
[17] = molecular target: T1, Protein cereblon/Cyclin-K/Cyclin-dependent kinase 12; experiment: Protac activity at human CRBN/CDK12/CycK in human Bel-7402 cells assessed as downregulation of ATR measured after 6 hrs by RT-qPCR method; format: cell-based
[18] = molecular target: T1, Protein cereblon/Cyclin-K/Cyclin-dependent kinase 12; experiment: Protac activity at human CRBN/CDK12/CycK in human MDA-MB-231 cells assessed as downregulation of ATR measured after 6 hrs by RT-qPCR method; format: cell-based
MDA-MB-231 [19] = experiment: Synergistic antiproliferative activity against human MDA-MB-231 cells in presence of 1 uM of Olaparib at 1 uM for 10 days by SRB staining based clone formation assay relative to control; format: functional; conditions: MDA-MB-231, 240 h, time 10 day
MDA-MB-231 [20] = experiment: Synergistic antiproliferative activity against human MDA-MB-231 cells in presence of 3 uM of Olaparib at 1 uM measured after 10 days by SRB staining based clone formation assay relative to control; format: functional; conditions: MDA-MB-231, 240 h, time 10 day
MDA-MB-231 [21] = experiment: Synergistic antiproliferative activity against human MDA-MB-231 cells in presence of 1 uM of Olaparib at 3 uM measured after 10 days by SRB staining based clone formation assay relative to control; format: functional; conditions: MDA-MB-231, 240 h, time 10 day
MDA-MB-231 [22] = experiment: Synergistic antiproliferative activity against human MDA-MB-231 cells in presence of 3 uM of Olaparib at 3 uM measured after 10 days by SRB staining based clone formation assay relative to control; format: functional; conditions: MDA-MB-231, 240 h, time 10 day
[23] = molecular target: T1, Protein cereblon/Cyclin-K/Cyclin-dependent kinase 12; experiment: Protac activity at human CRBN/CDK12/CycK in human Bel-7402 cells assessed as downregulation of Mcl-1 level upto 30 uM measured after 24 hrs by Western blotting assay; format: cell-based; conditions: dose microM <=30, time 24.0 hrs

Activity [1]: Active
IC50 (CDK12/Cyclin K): 0.645 µM
Activity [2]: Active
DC50 [3]: 0.416 µM
DC50 [4]: 0.412 µM
DC50 [5]: 0.416 µM
DC50 [6]: 0.412 µM
Activity [7]: inactive
Activity [8]: inactive
Activity [9]: inactive
Activity [10]: Active
Activity [11]: inactive
Activity [12]: Active
Activity [13]: inactive
Activity [14]: inactive
Activity [15]: Active
Activity [16]: Active
Activity [17]: Active
Activity [18]: Active
Activity [23]: inactive
SMILES: CC(C)n1cnc2c(NCc3nc4cc(F)c(NCCCCCCCCNC(=O)COc5cccc6c5C(=O)N(C5CCC(=O)NC5=O)C6=O)cc4[nH]3)nc(N3CCOCC3)nc21 (centres undefined)
inhibition at 1 µM (MDA-MB-231 [19]): 67.8%
inhibition at 1 µM (MDA-MB-231 [20]): 99.6%
inhibition at 3 µM (MDA-MB-231 [21]): 99.2%
inhibition at 3 µM (MDA-MB-231 [22]): 99.8%
